Laboratory results: patent publication US8058261B2, “3′-ethynylcytidine derivative” (Taiho Pharmaceutical Co., Ltd., priority 2006, dated 2011)
Counter-ions that a name gives are not always drawn.

Experiments:
[1] = tested on: Yoshida Sarcoma cell line (rat ascites tumor); test: Antitumor effect when perorally administered, Donryu rat subcutaneous tumor implantation system; assay type: in vivo, Donryu rats; conditions: perorally once a day for seven days at 12 μmol/kg/day; tumor weight seven days after grouping vs non-treatment group; ECyd equimolar
Protocol: Pharmacological Test Example 1 Antitumor Effect of the Compound of the Present Invention When Perorally Administered to Donryu Rat Subcutaneous Tumor Implantation System
Cells of a Yoshida Sarcoma cell line (rat ascites tumor) intraperitoneally subcultured in Donryu rats (Charles River Laboratories Japan, Inc.) were implanted subcutaneously to 5-week-old Donryu rats in the back thereof at 2×10^4 cells/0.2 mL. Four days after implantation, the body weight of each rat was measured, and the rats were grouped so that the average body weight was nearly equal between the groups (7 rats per group).
Each of the ECyd derivatives was dissolved or suspended in 0.5% hydroxypropylmethylcellulose solution, and the resultant solution or suspension was perorally administered to each rat every day from the day of grouping once a day for seven days at a dose of 12 μmol/kg/day. The ECyd derivative was evaluated three times. As a control in each test, ECyd was used in an equimolar amount as the ECyd derivative.
Seven days after the day of grouping, the tumor weight of the rat in the pharmaceutical agent administration group was measured. The tumor weight of the rat to which no pharmaceutical agent had been administered (non-treatment group) was also measured. The average tumor weight of each of the pharmaceutical agent administration group and the non-treatment group was calculated. Tumor growth inhibition rate (IR) was determined through use of the following equation, whereby antitumor effect was evaluated. IR(%)=[1−(TWtest)/(TWcont)]×100 (Equation 1) [wherein TWtest and TWcont represent the average tumor weight of the pharmaceutical agent administration group and the non-treatment group, respectively].

human tumor cells = conditions: intravenous 0.25 mg/kg for ten continuous days; gastric, colon, pancreatic, esophageal, bile duct, lung, breast, renal cancer strains; cited from earlier work
[2] = Serum ECyd level after peroral administration; assay type: in vivo; conditions: perorally administered to Donryu male rats; compared with ECyd
Protocol: Separately, the compound of the present invention was perorally administered to Donryu male rats, and serum ECyd level was measured.

SMILES	melting point	Tumor growth inhibition rate IR (%) [1] [%]	anti-tumor effect (human tumor cells)	serum ECyd level (concentration in blood) [2]
C#C[C@@]1(O)[C@@H](CO[Si](C)(C)C(C)(C)C(C)C)O[C@@H](n2ccc(N)nc2=O)[C@@H]1O	> 197 °C (dec.)			
C#C[C@@]1(O)[C@@H](CO)O[C@@H](n2ccc(N)nc2=O)[C@@H]1O [ECyd, 3′-ethynylcytidine]		46.6	excellent anti-tumor effect more greatly than any of fluoropyrimidine-based drugs	
C#C[C@@]1(O)[C@@H](CO[Si](C)(C)C(C)(C)C(C)C)O[C@@H](n2ccc(N)nc2=O)[C@@H]1O[Si](C)(C)C(C)(C)C(C)C [Compound 12, 1-(2,5-bis-O-Dimethylthexylsilyl-3-C-ethynyl-1-β-D-ribofuranosyl)cytosine]	106 to 108 °C	91.5		particularly high concentration in blood
C#C[C@@]1(O)[C@@H](CO)O[C@@H](n2ccc(N)nc2=O)[C@@H]1O[Si](C)(C)C(C)(C)C [Compound 9, 1-[2-O-(tert-Butyldimethylsilyl)-3-C-ethynyl-1-β-D-ribofuranosyl]cytosine]		99.6		particularly high concentration in blood
C#C[C@@]1(O)[C@@H](CO)O[C@@H](n2ccc(N)nc2=O)[C@@H]1O[Si](C(C)C)(C(C)C)C(C)C [Compound 11, 1-(2-O-Triisopropylsilyl-3-C-ethynyl-1-β-D-ribofuranosyl)cytosine]		88.3		particularly high concentration in blood
C#C[C@@]1(O)[C@@H](CO[Si](C)(C)C(C)(C)C)O[C@@H](n2ccc(NC(=O)OC(C)(C)C)nc2=O)[C@@H]1O	103 to 110 °C			
C#C[C@@]1(O)[C@@H](CO)O[C@@H](n2ccc(N)nc2=O)[C@@H]1O[Si](C)(C)C(C)(C)C(C)C [Compound 14, 1-(2-O-Dimethylthexylsilyl-3-C-ethynyl-1-β-D-ribofuranosyl)cytosine]	218 °C	99.8		particularly high concentration in blood
C#C[C@@]1(O)[C@@H](CO[Si](CC)(CC)CC)O[C@@H](n2ccc(N)nc2=O)[C@@H]1O	202 to 204 °C			
C#C[C@@]1(O)[C@@H](CO[Si](C(C)C)(C(C)C)C(C)C)O[C@@H](n2ccc(NC(=O)CN(C)C)nc2=O)[C@@H]1O [Compound 18, 1-[5-O-(Triisopropylsilyl)-3-C-ethynyl-β-ribofuranosyl]-4-N-(N,N-dimethylglycyl)cytosine]	146 to 148 °C			particularly high concentration in blood
C#C[C@@]1(O)[C@@H](CO[Si](C(C)C)(C(C)C)C(C)C)O[C@@H](n2ccc(N)nc2=O)[C@@H]1O [Compound 3, 1-[5-O-Triisopropylsilyl-3-C-ethynyl-β-D-ribofuranosyl]cytosine]	> 219 °C (dec.)	93.4		particularly high concentration in blood
C#C[C@@]1(O)[C@@H](CO[Si](C)(C)C(C)(C)C)O[C@@H](n2ccc(NC(=O)CCCCCC)nc2=O)[C@@H]1O [Compound 15, 1-[5-O-(tert-Butyldimethylsilyl)-3-C-ethynyl-β-D-ribofuranosyl]-4-N-heptanoylcytosine]	134 to 137 °C			particularly high concentration in blood
C#C[C@@]1(O)[C@@H](CO[Si](C)(C)C(C)(C)C)O[C@@H](n2ccc(N)nc2=O)[C@@H]1O [Compound 1, 1-[5-O-(tert-Butyldimethylsilyl)-3-C-ethynyl-β-D-ribofuranosyl]cytosine]	251 to 256 °C (dec.)	94.6		particularly high concentration in blood
C#C[C@@]1(O)[C@@H](CO[Si](C)(C)c2ccccc2)O[C@@H](n2ccc(N)nc2=O)[C@@H]1O	171 to 173 °C			
C#C[C@@]1(O)[C@@H](CO[Si](C)(C)CCCCCCCC)O[C@@H](n2ccc(N)nc2=O)[C@@H]1O [Compound 4, 1-[5-O-(Dimethyl-n-octylsilyl)-3-C-ethynyl-β-D-ribofuranosyl]cytosine]	175 to 177 °C (dec.)			particularly high concentration in blood
C#C[C@@]1(O)[C@@H](CO[Si](C)(C)C(C)(C)C)O[C@@H](n2ccc(NC(=O)CN(C)C)nc2=O)[C@@H]1O [Compound 17, 1-[5-O-(tert-Butyldimethylsilyl)-3-C-ethynyl-β-D-ribofuranosyl]-4-N-(N,N-dimethylglycyl)cytosine]	180 to 185 °C			particularly high concentration in blood
C#C[C@@]1(O)[C@@H](CO[Si](c2ccccc2)(c2ccccc2)C(C)(C)C)O[C@@H](n2ccc(N)nc2=O)[C@@H]1O (hydrate or solvate)	210 to 213 °C			
C#C[C@@]1(O)[C@@H](CO)O[C@@H](n2ccc(N)nc2=O)[C@@H]1O[Si](C)(C)C(C)(C)C(C)C (as salt: trifluoroacetic acid salt) [Compound 13, 1-(2-O-Dimethylthexylsilyl-3-C-ethynyl-1-β-D-ribofuranosyl)cytosine trifluoroacetic acid salt]	182 °C			
